# Measured values taken from US12626779B2, “Determining a targeted therapy using virtual inference of protein activity by regulon enrichment analysis of an individual subject tissue sample” (The Trustees of Columbia University in the City of New York, priority 2015, dated 2026).
# “And” between values parts separate entries of the source, which are not always exact repeats. Equal values may be shown once. Read-outs that look alike come from different tables or passages of the source.
# Tested on: lung adenocarcinoma cell lines
# Source text: FIG. 7A illustrates the probability density for the nonmutated (salmon) and mutated (green) samples based on MPS for six actionable mutations (complete list in FIGS. 21A-21F). Right plots show MPS (v axis) for all samples rank-sorted by MPS; green vertical lines indicate the mutated samples. MPS-defined WT and mutant phenotypes (likelihood ratio >3) are highlighted in salmon and green. […] Scatter plots show drug sensitivity, quantified by the area under the titration curves (AUC), for EGFR-targeting drugs as a function of MPS (expressed as likelihood ratio). Cell lines resembling an EGFR mutated and WT phenotypes are highlighted in green (likelihood ratio >3) and salmon boxes, respectively. Green dots indicate cell lines harboring nonsilent mutations. Solid and doted horizontal lines indicate the mean and 2.33 standard deviation over the mean of the chemoresistant cell lines, respectively. […] Violin plots show the probability density for drug sensitivity (AUC) of the cell lines showing an EGFR WT (green) or mutant (brown) phenotype according to MPS; horizontal lines indicate distribution means, which were contrasted by Student t-test (P values in insets).
# [1] = EGFR-mutated cell lines with MPS>0.5
# [2] = cell lines with low EGFR MPS (<−0.5) that yet harbored EGFR mutations
SMILES,fraction of cell lines responding to EGFR inhibitors (EGFR WT cell lines with MPS<−0.5) [%],fraction of cell lines responding to EGFR inhibitors (EGFR WT cell lines with MPS>0.5) [%],cell lines observed to be sensitive to the drug (sensitive/total) [1],cell lines observed to be sensitive to the drug (sensitive/total) [2],fraction of cell lines responding to EGFR inhibitors
"CN1CCN(CCOc2cc(OC3CCOCC3)c3c(Nc4c(Cl)ccc5c4OCO5)ncnc3c2)CC1 [AZD0530, saracatinib]",33,50,5/6,0/2,
C#Cc1cccc(Nc2ncnc3cc(OCCOC)c(OCCOC)cc23)c1 [erlotinib],,,5/6,1/2,
CS(=O)(=O)CCNCc1ccc(-c2ccc3ncnc(Nc4ccc(OCc5cccc(F)c5)c(Cl)c4)c3c2)o1 [lapatinib],,,4/6,1/2,36% and 27%
